Measurements reported in patent EP2879647B1, “SKIN CARE” (University of Pretoria, priority 2012, dated 2014).
In brackets after ≈: the same amount, converted by molar mass. Several values for one entry are separate records, joined by “and”; a condition that tells them apart may be missing. Identical values can stand only once. Blank lines part the entries; values can stand above or below the molecule they belong to. *1 amine or outer side, *2 acyl side, *3 side chain or, on linkers, in order; H or OH if unused. Where a SMILES comes first, the peptide text is derived from it. Bridges are numbered along the chain shown (N, C = ends). Roman numbers before positions name the chains, in order. [ ]: non-standard residue; d: D form. Actinocin(9to1) = Cc1c2oc3c(C)ccc(C(=O)[*:1])c3nc-2c(C(=O)[*:2])c(N)c1=O; NMeV = CN[C@H](C(=O)O)C(C)C; Sar = CNCC(=O)O

Columns and labels:
[1] = DPPH antioxidant (radical scavenging) assay; assay type: biochemical; settings: for Antioxidant IC50 / IC50: DPPH; for Antioxidant IC50: 550 nm, samples 100 to 0.7 µg/ml; for IC50: value in brackets
Description: Following the procedures as described by DuToit et al. (2001) for each sample, a dilution series (8 dilutions) was prepared in a 96 well plate by adding distilled water as a dilution medium. […] Each concentration was tested in triplicates. Vitamin C was used as a positive control. The radical scavenging capacities of the samples were determined using a BIOTEK plate reader to measure the disappearance of DPPH at 550 nm. The radical scavenging activity was measured in terms of the amount of antioxidants necessary to decrease the initial DPPH absorbance by 50% (IC50). The IC50 value of each sample was determined graphically by plotting the absorbance of DPPH as a function of the sample concentration in μg/ml. The IC50 is the amount of antioxidant necessary to decrease the initial DPPH absorbance by 50%. The results were calculated using the following equation: AA% = {Absblank(Abssample-Abscontrol)/Absblank} × 100 [formula] The mg vitamin C equivalents/g dry weight of potent samples was calculated as follows: […]) = (IC50(vitc)/IC50(sample)) × 1000. [formula]

[2] = tested on: colorectal cancer cells (HCT15); settings: Sung et al., 1999; cited from earlier work
[3] = In vitro cytotoxicity assay (XTT); settings: human; for CC50: u937 cells
Description: (§1) The mouse melanocytes (B16-F10) cells were cultured in a complete Minimum Essential Eagle's Medium (MEM) whereas the human U937 cells were cultured in Roswell Park Memorial Institute (RPMI) containing 10% fetal bovine serum (FBS) and 1% gentamycin. B16-F10 (10^5 cells per well) and U937 (10^6 cells per well) were seeded into a 96-well plate. […] The plate was then incubated at 37°C in 5% CO2, and a humidified atmosphere after which the toxicity effects of the extracts was assayed using the XTT (sodium 3'-[1-(phenyl amino-carbonyl)-3,4-tetrazolium]-bis-[4-methoxy-6-nitrobenzene sulfonic acid hydrate) cytotoxicity assay. […] By referring to the control (medium with DMSO), the cell survival rate was assessed.

[4] = tested on: skin cancer cells (SL-MEL-2); settings: Sung et al., 1999; cited from earlier work
[5] = In vitro cytotoxicity assay (XTT); settings: mouse; for CC50: b16-f10 cells
Description: as §1

[6] = tested on: Propionibacterium acnes (ATCC 11827); experiment: Antibacterial bioassay, MIC by broth microdilution (INT colour change); settings: Cutibacterium acnes, ATCC11827, 72 h, read-out: Antibacterial MIC
Description: Briefly, the bacteria was cultured from a Kwik-Stick on nutrient agar and incubated at 37°C for 72 h under anaerobic conditions before the assay. The 72 h culture of the bacteria was dissolved in nutrient broth and the suspension was adjusted to 0.5 McFarland standard turbidity. […] In a sterile 96-well plate, 100 µl of samples from the stock solution consisting of the plant extract/ isolated compounds (2 mg/ml in 10% dimethyl sulphoxide (DMSO)) and the positive control tetracycline (0.2 mg/ml) was diluted with broth. […] The bacterial suspension (100 µl) was added to the wells. […] The plates were incubated at 37°C for 72 h in an anaerobic environment.

CNS cancer cells (XF498) = settings: Sung et al., 1999; cited from earlier work
TNF a = experiment: Cytokine production (ELISA) in U937 cells co-cultured with heat-killed P. acnes; assay type: cell-based, human; settings: 100 and 50 µg/ml, U937 cells infected with P. acnes (Fig 3b)
Description: The effect of plant extract on cytokine production (IL 8 and TNF a) was evaluated using enzyme immunoassay kits (ELIZA) using method as described previously (Tsai et al., 2010). Briefly, the log phase culture of P.acnes was harvested, washed three times with phosphate buffer saline (PBS), and incubated at 80°C for 30 min to kill the bacteria. The heat-killed bacteria were stored at 4°C until use. The human U937 cells were seeded at 10^6 cells per well in a 24-well plate and was stimulated with heat killed P. acnes (wet weight 100 µg/ml) alone and in combination with the different test samples. Pentoxifylline was used as a control. After 18 h incubation, the cell-free supernatants were collected and the concentrations of IL 8 and TNF a were analysed. Cytokine standards were serially diluted to facilitate the construction of calibration curves necessary for determining protein concentration of test samples.

IL-8 = experiment: as above; assay type: cell-based, human; settings: U937 cells infected with P. acnes (Fig 3b)
[7] = constituent of Viburnum jucundum (Rios et al., 2001); cited from earlier work
U937 human macrophage = experiment: In vitro cytotoxicity assay (XTT); settings: XTT
Description: as §1

MAC tumour cells = settings: Woldemariam et al. (1992); cited from earlier work
P. acnes = experiment: Transmission electron microscopy (TEM) of treated bacteria; settings: 50 µg/ml, 72 h
Description: The bacterial suspension (5 ml) was mixed with plant extract and pure compound to a final concentration of 300 and 100 µg/ml for plant extract and 50 µg/ml for pure compound. […] The pathogen was treated for 72 h; the control group consisted of only bacterial suspension in nutrient broth. […] Samples were washed with phosphate buffer and postfixed in both 1% osmium tetraoxide and uranyl acetate. The cells were dehydrated in ethanol and embedded in quetol resin. Thin sections were prepared with a microtome and micrographs were taken using a JEOL JEM-2100F field emission electron microscope.

Antioxidant IC50 [1]: 1.98 µg/mL
IC50 [1]: 11.3 µM
Compound: O=C1O[C@H]([C@@H](O)CO)C(O)=C1O [vitamin C, reference compound]

Compound: C/C(=C\CO)CCC[C@H](C)CCC[C@H](C)CCCC(C)C [Compound C3, phytol]
toxicity against colorectal cancer cells (HCT15) [2]: mild toxicity
EC50 [3]: > 100 µg/mL
viability at 100 µg/ml [3]: 100%
Antioxidant IC50 [1]: >100 µg/mL
toxicity against skin cancer cells (SL-MEL-2) [4]: mild toxicity
EC50 [5]: > 100 µg/mL
viability at 100 µg/ml [5]: 100%
MIC [6]: > 500 µg/mL
toxicity against CNS cancer cells (XF498) (CNS cancer cells (XF498)): mild toxicity

Compound: CC(=O)CCCCn1c(=O)c2c(ncn2C)n(C)c1=O [pentoxifylline]
inhibition of TNF a (TNF a): Significant inhibition
IL-8 concentration (IL-8): no change

Compound: CCCCCCCCCCCCCCCCCCCCCCCCCCCCCCO [Compound C2, triacontanol]
EC50 [3]: > 100 µg/mL
viability at 100 µg/ml [3]: 100%
Antioxidant IC50 [1]: >100 µg/mL
toxicity [7]: non toxic
EC50 [5]: > 100 µg/mL
viability at 100 µg/ml [5]: 100%
MIC [6]: > 500 µg/mL

Compound: Cc1c2oc3c(C)ccc(C(=O)N[C@@H]4C(=O)N[C@H](C(C)C)C(=O)N5CCC[C@H]5C(=O)N(C)CC(=O)N(C)[C@@H](C(C)C)C(=O)O[C@@H]4C)c3nc-2c(C(=O)N[C@@H]2C(=O)N[C@H](C(C)C)C(=O)N3CCC[C@H]3C(=O)N(C)CC(=O)N(C)[C@@H](C(C)C)C(=O)O[C@@H]2C)c(N)c1=O [actinomycin D, reference compound] (I: T[dV]P[Sar][NMeV] / II: T[dV]P[Sar][NMeV]; ester I:1-I:C, II:1-II:C; linker I:N-II:N via Actinocin(9to1))
CC50 [3]: 0.0045 µg/mL (≈ 0.00358 µM)
CC50 [5]: 0.0045 µg/mL (≈ 0.00358 µM)

Antioxidant IC50 [1]: >100 µg/mL
MIC [6]: > 500 µg/mL
Compound: CC(=O)OC/C=C(\C)CCC[C@H](C)CCC[C@H](C)CCCC(C)C [Compound C1, phytol acetate]

Compound: CN(C)[C@@H]1C(O)=C(C(N)=O)C(=O)[C@@]2(O)C(O)=C3C(=O)c4c(O)cccc4[C@@](C)(O)[C@H]3C[C@@H]12 [tetracycline, reference compound]
MIC [6]: 3.1 µg/mL and 7 µM

Antioxidant IC50 [1]: 5.05 µg/mL
IC50 [1]: 10.5 µM
MIC [6]: 1.9 µg/mL and 2.1 µM
Compound: COc1c(C)c(O)c(Cc2c(O)c(C)c(OC)c(C(=O)C(C)C)c2O)c(O)c1C(=O)C(C)C [Compound C4, alpha kosin]
CC50 [3]: < 3.12 µg/mL
Cytotoxicity EC50 U937 human macrophage (U937 human macrophage): <3.12 µg/mL
cytotoxic effects against MAC tumour cells (MAC tumour cells): strong cytotoxic effects
cell injuries to P. acnes (TEM micrograph) (P. acnes): significant damage to P. acnes
mg vitamin C equivalents/g dry weight ([1]; (IC50 vit C / IC50 sample) x 1000): 392 mg vitamin C equivalents/g dry weight
CC50 [5]: < 3.12 µg/mL
